According to patent US9656996B2, “Fused heterocyclic compound, preparation method therefor, pharmaceutical composition, and uses thereof” (SHANGHAI YINGLI PHARMACEUTICAL CO., LTD., priority 2013, dated 2017):

Columns and labels:
[1] = target: PI3Kβ (Homo sapiens (Human), UniProt P42338); assay: PI3Kβ enzymatic inhibitory activity IC50 assay; format: biochemical; details: selectivity ratio
Experimental: (§1) 1. Buffer preparation: 50 mM HEPES, pH 7.5, 3 mM MgCl2, 1 mM EGTA, 100 mM NaCl, 0.03% CHAPS.
(§2) 2. The compound was formulated in 100% DMSO in a concentration gradient, and deposited to a 384-well plate with a final DMSO concentration of 1%.
(§3) 3. PI3Kα, PI3Kδ, PI3Kβ and PI3Kγ enzymes (purchased from EMD Millipore) were diluted to the optimal concentration with the following buffer: 50 mM HEPES, pH 7.5, 3 mM MgCl2, 1 mM EGTA, 100 mM NaCl, 0.03% CHAPS, 2 mM DTT, transferred to a 384-well plate and incubated with the compound for a certain time.
(§4) 4. The substrate was diluted to an optimal concentration with the following buffer: 50 mM HEPES, pH 7.5, 3 mM MgCl2, 1 mM EGTA, 100 mM NaCl, 0.03% CHAPS, 2 mM DTT, 50 μM PIP2, 25 μM ATP and added to the 384-well plate to initiate the reaction. PI3Kα, PI3Kβ and PI3Kγ were allowed to react for 1 h at room temperature, and PI3Kδ reacted for 2 hours at room temperature. Another 10 μL ADP-Glo Detection Reagent also needed to be added for PI3Kβ and PI3Kγ, and then equilibrated at room temperature for 30 minutes.
(§5) 5. Luminescence was read by using Flexstation, and the inhibition rate was calculated as the average value of two tests.

[2] = test system: Raji cell TNF-α generation; assay: Inhibition of human Raji cell TNF-α generation induced by human IgM (ELISA); format: cell-based; details: Raji cells, IgM stimulation, 24 hours
Experimental: 1. Raji cell line (human Burkitt's lymphoma origin) (ATCC, Cat#CCL-86) was used.
2. Raji cells were applied onto the 96-well plate with 1×10^5/well.
3. The compounds to be screened were diluted to the corresponding test concentration, and added to the cell culture system 30 minutes prior to IgM stimulation.
4. 10 µg/ml IgM monoclonal antibody (JACKSON, Cat#109-006-129) was added to the cell culture system in order to stimulate the cells generating TNF-α.
5. After 24 hours, the amount of TNF-α produced by the cell line was determined by ELISA.
6. The inhibition rates at each concentration of the compound were calculated and plotted to calculate 50% inhibition rate (IC50), and the specific results were shown in table 3.

[3] = target: PI3Kγ (Homo sapiens (Human), UniProt P48736); assay: PI3Kγ enzymatic inhibitory activity IC50 assay; format: biochemical; details: selectivity ratio
Experimental: as §1, §2, §3, §4, §5

[4] = target: PI3Kα (Homo sapiens (Human), UniProt P42336); assay: PI3Kα enzymatic inhibitory activity IC50 assay; format: biochemical; details: selectivity ratio
Experimental: as §1, §2, §3, §4, §5

[5] = target: PI3Kδ (Homo sapiens (Human), UniProt O00329); assay: PI3Kδ enzymatic inhibitory activity IC50 assay; format: biochemical; details: luminescence readout, 25 μM ATP, 50 μM PIP2, 2 hours at room temperature
Experimental: as §1, §2, §3, §4, §5

Sequence of PI3Kα (P42336 whole entry, species assumed): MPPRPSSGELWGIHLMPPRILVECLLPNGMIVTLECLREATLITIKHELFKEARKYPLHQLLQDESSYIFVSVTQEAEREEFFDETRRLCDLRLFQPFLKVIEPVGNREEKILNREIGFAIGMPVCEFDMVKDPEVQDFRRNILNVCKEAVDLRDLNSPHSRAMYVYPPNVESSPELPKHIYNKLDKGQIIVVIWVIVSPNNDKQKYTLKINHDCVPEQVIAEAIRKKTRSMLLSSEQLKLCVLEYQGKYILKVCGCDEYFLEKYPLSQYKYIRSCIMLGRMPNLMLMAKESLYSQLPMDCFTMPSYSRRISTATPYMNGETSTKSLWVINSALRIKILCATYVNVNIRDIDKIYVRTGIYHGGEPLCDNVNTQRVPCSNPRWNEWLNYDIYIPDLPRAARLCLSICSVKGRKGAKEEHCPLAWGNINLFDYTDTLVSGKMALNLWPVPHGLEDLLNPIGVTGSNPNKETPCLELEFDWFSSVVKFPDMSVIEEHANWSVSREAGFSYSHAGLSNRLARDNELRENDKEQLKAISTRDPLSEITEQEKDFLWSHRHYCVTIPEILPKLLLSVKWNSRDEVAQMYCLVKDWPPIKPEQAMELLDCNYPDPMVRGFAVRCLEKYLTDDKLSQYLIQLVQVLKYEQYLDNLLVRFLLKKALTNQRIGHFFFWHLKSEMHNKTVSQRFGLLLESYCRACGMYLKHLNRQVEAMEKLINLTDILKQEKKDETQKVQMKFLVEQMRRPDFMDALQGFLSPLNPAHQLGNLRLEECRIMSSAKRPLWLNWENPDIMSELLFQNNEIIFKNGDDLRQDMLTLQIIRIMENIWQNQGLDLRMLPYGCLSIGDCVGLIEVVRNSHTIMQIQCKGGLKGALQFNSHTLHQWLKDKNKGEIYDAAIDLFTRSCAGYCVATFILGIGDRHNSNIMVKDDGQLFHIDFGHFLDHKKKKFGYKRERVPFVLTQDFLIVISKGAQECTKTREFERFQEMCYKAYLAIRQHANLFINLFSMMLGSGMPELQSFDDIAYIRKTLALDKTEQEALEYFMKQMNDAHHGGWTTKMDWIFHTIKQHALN
Sequence of PI3Kα (P27986 whole entry partner, species assumed): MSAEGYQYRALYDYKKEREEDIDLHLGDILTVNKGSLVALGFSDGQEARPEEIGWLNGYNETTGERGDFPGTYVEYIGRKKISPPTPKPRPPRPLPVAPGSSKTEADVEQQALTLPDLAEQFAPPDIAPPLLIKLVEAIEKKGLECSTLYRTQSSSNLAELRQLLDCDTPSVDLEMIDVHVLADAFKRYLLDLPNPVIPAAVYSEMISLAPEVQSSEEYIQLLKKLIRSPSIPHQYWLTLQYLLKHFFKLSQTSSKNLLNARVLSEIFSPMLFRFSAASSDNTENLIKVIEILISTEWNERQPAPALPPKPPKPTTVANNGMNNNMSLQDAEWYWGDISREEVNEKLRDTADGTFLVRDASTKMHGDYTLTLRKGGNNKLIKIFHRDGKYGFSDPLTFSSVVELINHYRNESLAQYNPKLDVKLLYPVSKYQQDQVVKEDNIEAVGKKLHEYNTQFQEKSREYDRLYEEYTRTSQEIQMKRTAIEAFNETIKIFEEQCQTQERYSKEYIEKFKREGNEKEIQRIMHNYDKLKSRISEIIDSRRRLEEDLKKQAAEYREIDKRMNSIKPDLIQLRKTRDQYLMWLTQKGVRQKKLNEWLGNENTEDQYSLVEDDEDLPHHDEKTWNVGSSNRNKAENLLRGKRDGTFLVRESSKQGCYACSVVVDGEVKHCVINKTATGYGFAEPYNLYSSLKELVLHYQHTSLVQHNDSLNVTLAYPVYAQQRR
Sequence of PI3Kδ (O00329 whole entry, species assumed): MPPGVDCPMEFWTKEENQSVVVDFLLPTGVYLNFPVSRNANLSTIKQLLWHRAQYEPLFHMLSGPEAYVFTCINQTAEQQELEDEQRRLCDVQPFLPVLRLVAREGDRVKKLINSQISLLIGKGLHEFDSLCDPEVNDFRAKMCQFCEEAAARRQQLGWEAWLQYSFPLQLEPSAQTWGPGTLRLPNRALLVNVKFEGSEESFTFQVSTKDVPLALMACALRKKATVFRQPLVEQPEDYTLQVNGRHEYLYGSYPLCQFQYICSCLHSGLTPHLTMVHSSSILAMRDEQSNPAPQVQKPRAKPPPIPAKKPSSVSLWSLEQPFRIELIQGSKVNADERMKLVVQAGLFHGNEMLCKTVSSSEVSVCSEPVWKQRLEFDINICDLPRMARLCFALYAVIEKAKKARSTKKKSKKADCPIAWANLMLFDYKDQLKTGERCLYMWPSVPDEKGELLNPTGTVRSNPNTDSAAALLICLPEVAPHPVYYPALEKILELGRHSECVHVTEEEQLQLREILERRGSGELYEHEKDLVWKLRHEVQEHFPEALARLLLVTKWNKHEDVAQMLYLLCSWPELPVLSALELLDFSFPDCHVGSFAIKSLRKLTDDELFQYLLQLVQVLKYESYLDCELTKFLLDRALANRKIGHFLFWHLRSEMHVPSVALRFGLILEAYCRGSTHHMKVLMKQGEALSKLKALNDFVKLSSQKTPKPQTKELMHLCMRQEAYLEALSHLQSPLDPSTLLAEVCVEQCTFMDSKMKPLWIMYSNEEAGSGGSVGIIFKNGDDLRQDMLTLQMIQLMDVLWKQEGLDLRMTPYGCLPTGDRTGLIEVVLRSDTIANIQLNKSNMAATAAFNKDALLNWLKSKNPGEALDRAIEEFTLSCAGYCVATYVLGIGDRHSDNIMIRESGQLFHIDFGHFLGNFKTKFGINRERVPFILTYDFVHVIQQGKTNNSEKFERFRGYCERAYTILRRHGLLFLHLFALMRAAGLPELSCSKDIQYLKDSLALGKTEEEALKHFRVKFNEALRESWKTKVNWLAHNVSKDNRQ
Sequence of PI3Kδ (P27986 whole entry partner, species assumed): as the sequence (P27986 whole entry partner, species assumed) above
Sequence of PI3Kβ (P42338 whole entry, species assumed): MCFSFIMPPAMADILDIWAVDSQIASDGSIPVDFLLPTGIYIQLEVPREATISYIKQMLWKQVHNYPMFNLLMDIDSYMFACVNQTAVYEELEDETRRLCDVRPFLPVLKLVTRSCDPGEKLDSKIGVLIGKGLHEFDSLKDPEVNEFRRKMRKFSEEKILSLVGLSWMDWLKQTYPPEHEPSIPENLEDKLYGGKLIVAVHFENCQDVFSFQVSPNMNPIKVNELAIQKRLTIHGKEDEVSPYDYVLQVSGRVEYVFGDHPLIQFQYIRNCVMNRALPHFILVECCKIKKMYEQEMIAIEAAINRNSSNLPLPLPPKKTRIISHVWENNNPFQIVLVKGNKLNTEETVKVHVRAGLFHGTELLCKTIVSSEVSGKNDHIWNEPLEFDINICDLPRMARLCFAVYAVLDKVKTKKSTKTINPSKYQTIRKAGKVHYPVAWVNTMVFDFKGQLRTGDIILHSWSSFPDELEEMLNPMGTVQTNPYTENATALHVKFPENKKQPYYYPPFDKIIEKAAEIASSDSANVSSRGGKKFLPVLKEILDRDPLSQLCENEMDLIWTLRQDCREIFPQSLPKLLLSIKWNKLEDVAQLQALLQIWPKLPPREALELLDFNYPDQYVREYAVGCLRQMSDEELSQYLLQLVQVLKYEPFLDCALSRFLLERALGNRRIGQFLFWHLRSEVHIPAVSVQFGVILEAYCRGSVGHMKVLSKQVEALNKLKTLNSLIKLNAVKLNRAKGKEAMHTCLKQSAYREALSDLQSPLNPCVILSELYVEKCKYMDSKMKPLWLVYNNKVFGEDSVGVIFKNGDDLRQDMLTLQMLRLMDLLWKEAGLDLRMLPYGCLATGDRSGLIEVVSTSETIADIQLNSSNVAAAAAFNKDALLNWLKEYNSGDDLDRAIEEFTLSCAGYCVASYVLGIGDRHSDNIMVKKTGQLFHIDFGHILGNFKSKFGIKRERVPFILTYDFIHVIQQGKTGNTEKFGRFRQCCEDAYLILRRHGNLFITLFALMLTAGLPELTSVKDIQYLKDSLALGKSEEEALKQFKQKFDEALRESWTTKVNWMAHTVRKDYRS
Sequence of PI3Kβ (P27986 whole entry partner, species assumed): as the sequence (P27986 whole entry partner, species assumed) above
Sequence of PI3Kγ (P48736 whole entry, species assumed): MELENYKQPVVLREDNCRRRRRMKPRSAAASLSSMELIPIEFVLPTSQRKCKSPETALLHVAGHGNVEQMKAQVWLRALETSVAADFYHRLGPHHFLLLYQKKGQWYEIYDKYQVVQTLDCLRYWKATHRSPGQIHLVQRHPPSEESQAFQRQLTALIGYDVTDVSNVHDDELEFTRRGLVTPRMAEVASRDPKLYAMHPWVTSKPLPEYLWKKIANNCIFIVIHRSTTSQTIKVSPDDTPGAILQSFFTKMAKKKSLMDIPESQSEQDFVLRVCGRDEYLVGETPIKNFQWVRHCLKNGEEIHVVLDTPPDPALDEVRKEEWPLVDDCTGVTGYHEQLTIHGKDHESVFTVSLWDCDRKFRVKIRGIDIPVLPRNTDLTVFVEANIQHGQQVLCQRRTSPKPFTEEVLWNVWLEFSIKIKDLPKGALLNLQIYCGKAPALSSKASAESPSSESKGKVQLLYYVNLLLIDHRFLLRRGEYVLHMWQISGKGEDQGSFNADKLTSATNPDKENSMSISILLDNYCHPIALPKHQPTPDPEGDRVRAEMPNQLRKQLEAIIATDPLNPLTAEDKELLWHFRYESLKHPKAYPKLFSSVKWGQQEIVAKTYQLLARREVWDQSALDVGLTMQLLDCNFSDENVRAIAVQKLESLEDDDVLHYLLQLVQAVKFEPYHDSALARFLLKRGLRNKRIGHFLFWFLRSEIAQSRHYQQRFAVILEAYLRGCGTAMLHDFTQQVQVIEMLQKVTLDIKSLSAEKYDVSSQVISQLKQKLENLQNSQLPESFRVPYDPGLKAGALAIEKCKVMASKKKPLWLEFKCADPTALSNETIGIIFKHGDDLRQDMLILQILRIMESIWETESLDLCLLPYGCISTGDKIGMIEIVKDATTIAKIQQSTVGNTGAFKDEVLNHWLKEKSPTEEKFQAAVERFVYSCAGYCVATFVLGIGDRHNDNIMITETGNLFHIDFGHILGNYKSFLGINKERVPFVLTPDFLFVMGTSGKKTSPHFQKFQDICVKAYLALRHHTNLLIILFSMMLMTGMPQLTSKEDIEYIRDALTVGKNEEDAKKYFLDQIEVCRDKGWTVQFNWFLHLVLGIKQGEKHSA

- β/δ (ratio of IC50 values against PI3Kβ to PI3Kδ) [1]: 360
- IC50 [2]: 0.066 µM
- γ/δ (ratio of IC50 values against PI3Kγ to PI3Kδ) [3]: >549
- α/δ (ratio of IC50 values against PI3Kα to PI3Kδ) [4]: 202
- IC50 [5]: 0.0182 µM
Structure (SMILES): COc1ncc(-c2nc(N3CCOCC3)nc3c(OC4CCC(N5CCCCC5)CC4)cc(F)cc23)cc1NS(C)(=O)=O (centres unmarked) [Compound 34]
